# Laboratory results taken from paper PMC4604124, “In Vitro Characterization of the Pharmacological Properties of the Anti-Cancer Chelator, Bp4eT, and Its Phase I Metabolites” (PLoS ONE, 2015).
# Values joined by “and” are separate entries in the source; they are usually repeats but may differ in a detail not shown here. Equal values may be shown once.
# How the values were obtained:
# caspase 9 = assay: Caspase activity, luminescent kit, caspase 9; format: cell-based, human
# Procedure: (§1) To assess the effect of the compounds on caspase activity, MCF-7 cells were incubated with 100 nM Bp4eT or its metabolites for 3, 24 or 72 h/37°C in 96-well plates, as described above. The cells were then lysed by adding 100 μL of cold lysis buffer (100 mM HEPES, 10 mM CHAPS, 10 mM D-L-dithiothreitol, pH 7.4) to 100 μL of medium in each well. Lysates were immediately frozen at -80°C. Thawed lysates were used to assess caspase activity using luminescent kits for caspases 3/7, 8 and 9 (Promega, Madison, WI, USA). The luminescence was measured using the Tecan Infinite 200M plate reader. Caspase activity in the experimental groups was corrected according to the cellular viability of each group and expressed as a percentage of activity of the untreated control (100%).
# caspases 3/7 = assay: Caspase activity, luminescent kit, caspases 3/7; format: cell-based, human; settings: for kaspáza (3) a 7, raw signal / kaspáza (3) a 7, signal / viabilita: individual experiments by date; for kaspáza (3) a 7, raw signal, průměry / kaspáza (3) a 7, % kontroly / kaspáza (3) a 7, signal / viabilita, průměry: mean; for kaspáza (3) a 7, % kontroly / kaspáza (3) a 7, signal / viabilita / kaspáza (3) a 7, signal / viabilita, průměry: normalised to viability
# Procedure: as §1
# [1] = test system: A549 human lung adenocarcinoma cells; assay: MTT cytotoxicity assay, A549 cells; format: cell-based; settings: for IC50: MTT
# Procedure: For cytotoxicity experiments, cancer cells were seeded at a density of 5,000 (MCF-7), 10,000 (HL-60) or 2,000 cells/well (HCT116 and A549) in 96-well plates (TPP) for 24 h/37°C prior to the addition of examined agents. The non-cancerous cells, 3T3 and H9c2 cells, were cultured for 24 h/37°C in 96-well plates at a density of 10,000 cells/well, the medium was then changed to serum- and pyruvate-free DMEM (Sigma-Aldrich) and incubated with the cells for another 24 h/37°C. The cytotoxic effects of Bp4eT and its metabolites were studied at different concentrations after a 72 h/37°C incubation. In order to aid the dissolution of the lipophilic ligands, 0.1% dimethyl sulfoxide (v/v) (DMSO; Sigma-Aldrich) was present in the culture medium of all groups. At this concentration, DMSO had no effect on cellular proliferation or viability.
# The viability of cells were determined using an MTT assay (Sigma-Aldrich) according to previously established methods. The optical density of soluble MTT was measured at λ = 570 nm, subtracting the λ = 690 nm background using a Tecan Infinite 200M plate reader (Tecan Group, Männedorf, Switzerland). The viability or proliferation of experimental groups was expressed as a percentage of the untreated controls (100%).
# SigmaStat for Windows 3.5 (Systat Software, San Jose, CA, USA) statistical software package was utilized to analyze results. The data are expressed as the mean ± SD of a given number of experiments. Statistical significance was determined using a one-way ANOVA with a Bonferroni post-hoc test or Student’s t-test. The results were considered to be statistically significant when p < 0.05. The IC50 values were calculated using CalcuSyn 2.0 software (Biosoft, Cambridge, UK). Cell cycle analysis was evaluated using MultiCycle AV Software (Phoenix Flow Systems, San Diego, CA, USA).
smiles,measurement,setting,value
"CCN=CNN=C(c1ccccc1)c1ccccn1 [Bp4eA, N ^3-ethyl-N ^1-[phenyl(pyridin-2-yl)methylene]formamidrazone]","kaspáza 9, signal / viabilita, průměry","caspase 9; 24 hodin, normalised to viability, mean",40.3257
same,"kaspáza 9, raw signal","caspase 9; 72 hodin, individual experiments by date",22564 and 18032 and 23775.5 and 21453
same,"kaspáza 9, raw signal, průměry","caspase 9; 72 hodin, mean",21456.1
same,"kaspáza 9, % kontroly","caspase 9; 72 hodin, mean, normalised to viability",106.51 % kontroly
same,"kaspáza 9, signal / viabilita","caspase 9; 72 hodin, normalised to viability, individual experiments by date",242.519 and 193.809 and 255.541 and 230.578
same,"kaspáza 9, signal / viabilita, průměry","caspase 9; 72 hodin, normalised to viability, mean",230.612
same,"kaspáza (3) a 7, raw signal",caspases 3/7; 3 hodiny,1911.5 and 1519 and 1669 and 1490
same,"kaspáza (3) a 7, raw signal, průměry",caspases 3/7; 3 hodiny,1647.38
same,"kaspáza (3) a 7, % kontroly",caspases 3/7; 3 hodiny,103.19 % kontroly
same,"kaspáza (3) a 7, signal / viabilita",caspases 3/7; 3 hodiny,19.7461 and 15.6915 and 17.241 and 15.3919
same,"kaspáza (3) a 7, signal / viabilita, průměry",caspases 3/7; 3 hodiny,17.0176
same,"kaspáza (3) a 7, raw signal",caspases 3/7; 24 hodin,2415 and 2091.5 and 2337 and 2002.5
same,"kaspáza (3) a 7, raw signal, průměry",caspases 3/7; 24 hodin,2211.5
same,"kaspáza (3) a 7, % kontroly",caspases 3/7; 24 hodin,101.36 % kontroly
same,"kaspáza (3) a 7, signal / viabilita",caspases 3/7; 24 hodin,25.2632 and 21.8791 and 24.4473 and 20.9481
same,"kaspáza (3) a 7, signal / viabilita, průměry",caspases 3/7; 24 hodin,23.1344
same,"kaspáza (3) a 7, raw signal",caspases 3/7; 72 hodin,7143 and 7295 and 7483 and 8002
same,"kaspáza (3) a 7, raw signal, průměry",caspases 3/7; 72 hodin,7480.75
same,"kaspáza (3) a 7, % kontroly",caspases 3/7; 72 hodin,108.88 % kontroly
same,"kaspáza (3) a 7, signal / viabilita",caspases 3/7; 72 hodin,76.7734 and 78.4071 and 80.4278 and 86.006
same,"kaspáza (3) a 7, signal / viabilita, průměry",caspases 3/7; 72 hodin,80.4036
same,"Therapeutic index, IC50 non-cancerous cells / IC50 neoplastic cells",[1]; 3T3/A549,5.0
same,"MTT, relative to control (0 = 100)","[1]; A549, 2 000 b/j, 1 μM, průměr (mean), sheet Bp4eA",94.41
same,"MTT, relative to control (0 = 100)","[1]; A549, 2 000 b/j, 1 μM, single experiment (date), sheet Bp4eA",88.8209 and 94.4571 and 96.7337 and 97.6446
same,"MTT, relative to control (0 = 100)","[1]; A549, 2 000 b/j, 3 μM, průměr (mean), sheet Bp4eA",94.09
same,"MTT, relative to control (0 = 100)","[1]; A549, 2 000 b/j, 3 μM, single experiment (date), sheet Bp4eA",86.5333 and 93.7511 and 98.3115 and 97.7691
same,"MTT, relative to control (0 = 100)","[1]; A549, 2 000 b/j, 10 μM, průměr (mean), sheet Bp4eA",92.78
same,"MTT, relative to control (0 = 100)","[1]; A549, 2 000 b/j, 10 μM, single experiment (date), sheet Bp4eA",86.1682 and 92.0865 and 96.0506 and 96.8227
same,"MTT, relative to control (0 = 100)","[1]; A549, 2 000 b/j, 30 μM, průměr (mean), sheet Bp4eA",91.20
same,"MTT, relative to control (0 = 100)","[1]; A549, 2 000 b/j, 30 μM, single experiment (date), sheet Bp4eA",88.1425 and 87.7957 and 97.6861 and 91.1602
same,"MTT, relative to control (0 = 100)","[1]; A549, 2 000 b/j, 100 μM, průměr (mean), sheet Bp4eA",77.56
same,"MTT, relative to control (0 = 100)","[1]; A549, 2 000 b/j, 100 μM, single experiment (date), sheet Bp4eA",74.9089 and 76.0742 and 86.7011 and 72.5654
same,"MTT, relative to control (0 = 100)","[1]; A549, 2 000 b/j, 300 μM, průměr (mean), sheet Bp4eA",45.10
same,"MTT, relative to control (0 = 100)","[1]; A549, 2 000 b/j, 300 μM, single experiment (date), sheet Bp4eA",48.1515 and 41.8857 and 54.342 and 36.0376
same,"MTT, relative to control (0 = 100)","[1]; A549, 2 000 b/j, 1000 μM, průměr (mean), sheet Bp4eA",7.31
same,"MTT, relative to control (0 = 100)","[1]; A549, 2 000 b/j, 1000 μM, single experiment (date), sheet Bp4eA",9.28 and 7.437 and 7.169 and 5.37
same,IC50,"[1]; A549, 2 000 b/j, single experiment (date), sheet Bp4eA",183 µM and 273 µM and 169 µM
same,"Therapeutic index, IC50 non-cancerous cells / IC50 neoplastic cells",[1]; H9c2/A549,2.0
same,IC50,"[1]; Homo sapiens, A549, 72 h, A549, 72 h/37°C, mean ± SD, n ≥ 4",207 ± 46.1 µM
same,IC50,"[1]; Homo sapiens, A549, A549, 2 000 b/j, průměr (mean), sheet Bp4eA",207 µM
same,IC50,"[1]; Homo sapiens, A549, A549, 2 000 b/j, single experiment (date), sheet Bp4eA",202 µM
